Laboratory results reported in ChEMBL document CHEMBL1201862, “PubChem BioAssay data set” (2004).
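All cell lines were grown in 96-well plates and treated with compound for 48 hours. GI50 is the concentration that inhibits growth by half.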 Calls of active or inactive are those of the source. Cut-off read from the data, not from the text of the source: active = GI50 up to about 1.1 µM and inactive = higher.

Assays:
Assay in all cases: inhibition of tumour cell growth, NCI panel, 48 h
SF-539 = system: SF-539
MOLT-4 = system: MOLT-4
HOP-62 = system: HOP-62
MDA-N = system: MDA-N
ACHN = system: ACHN
MCF7 = system: MCF7
CAKI-1 = system: CAKI-1
HT-29 = system: HT-29
T47D = system: T47D
NCI-H460 = system: NCI-H460
M14 = system: M14
SW-620 = system: SW-620
SK-MEL-2 = system: SK-MEL-2
Hs-578T = system: Hs-578T
NCI-H226 = system: NCI-H226
NCI-H522 = system: NCI-H522
MDA-MB-435 = system: MDA-MB-435
EKVX = system: EKVX
SNB-75 = system: SNB-75

C/C(=C\[Si](C)(C)c1ccco1)C(C)(O)[C@H](C)O (some centres not stated)
GI50 (SF-539): > 100 µM (inactive) | GI50 (MOLT-4): 33.4 µM (inactive) | GI50 (HOP-62): > 100 µM (inactive) | GI50 (MDA-N): 54.6 µM (inactive) | GI50 (ACHN): 95.3 µM (inactive) | GI50 (MCF7): 32.9 µM (inactive) | GI50 (CAKI-1): > 100 µM (inactive) | GI50 (HT-29): 41 µM (inactive) | GI50 (T47D): 16.4 µM (inactive) | GI50 (NCI-H460): 47.5 µM (inactive) | GI50 (M14): > 100 µM (inactive) | GI50 (SW-620): 84.9 µM (inactive) | GI50 (SK-MEL-2): 91.6 µM (inactive) | GI50 (Hs-578T): 55.3 µM (inactive) | GI50 (NCI-H226): 64.9 µM (inactive) | GI50 (NCI-H522): 30.3 µM (inactive) | GI50 (MDA-MB-435): 45.3 µM (inactive) | GI50 (EKVX): 42.6 µM (inactive)

CCCCC(=O)/C=c1/cc(C)[nH]c2cccc3cnn1c32
GI50 (SF-539): > 100 µM (inactive) | GI50 (MOLT-4): > 100 µM (inactive) | GI50 (HOP-62): > 100 µM (inactive) | GI50 (MDA-N): > 100 µM (inactive) | GI50 (ACHN): > 100 µM (inactive) | GI50 (MCF7): > 100 µM (inactive) | GI50 (CAKI-1): > 100 µM (inactive) | GI50 (HT-29): 60.1 µM (inactive) | GI50 (T47D): 16 µM (inactive) | GI50 (M14): > 100 µM (inactive) | GI50 (SW-620): > 100 µM (inactive) | GI50 (SK-MEL-2): > 100 µM (inactive) | GI50 (Hs-578T): > 100 µM (inactive) | GI50 (NCI-H226): > 100 µM (inactive) | GI50 (NCI-H522): > 100 µM (inactive) | GI50 (MDA-MB-435): 64 µM (inactive) | GI50 (EKVX): > 100 µM (inactive)

O=[N+]([O-])c1ccc(N/N=C2/CC3=C2CCCCCCCCCC3)c([N+](=O)[O-])c1
GI50 (MOLT-4): > 100 µM (inactive) | GI50 (HOP-62): > 100 µM (inactive) | GI50 (MDA-N): > 100 µM (inactive) | GI50 (ACHN): > 100 µM (inactive) | GI50 (MCF7): > 100 µM (inactive) | GI50 (CAKI-1): > 100 µM (inactive) | GI50 (HT-29): > 100 µM (inactive) | GI50 (T47D): > 100 µM (inactive) | GI50 (NCI-H460): > 100 µM (inactive) | GI50 (M14): > 100 µM (inactive) | GI50 (SW-620): > 100 µM (inactive) | GI50 (SK-MEL-2): > 100 µM (inactive) | GI50 (Hs-578T): 39.3 µM (inactive) | GI50 (NCI-H226): > 100 µM (inactive) | GI50 (NCI-H522): > 100 µM (inactive) | GI50 (MDA-MB-435): > 100 µM (inactive) | GI50 (EKVX): > 100 µM (inactive) | GI50 (SNB-75): 44.4 µM (inactive)

CCOC(=O)C1=[N+]([O-])OC2=C(O)CCCC21 (configuration not stated)
GI50 (MOLT-4): > 100 µM (inactive) | GI50 (HOP-62): > 100 µM (inactive) | GI50 (MDA-N): > 100 µM (inactive) | GI50 (ACHN): > 100 µM (inactive) | GI50 (MCF7): > 100 µM (inactive) | GI50 (CAKI-1): > 100 µM (inactive) | GI50 (HT-29): > 100 µM (inactive) | GI50 (T47D): > 100 µM (inactive) | GI50 (NCI-H460): > 100 µM (inactive) | GI50 (M14): > 100 µM (inactive) | GI50 (SW-620): > 100 µM (inactive) | GI50 (SK-MEL-2): > 100 µM (inactive) | GI50 (Hs-578T): > 100 µM (inactive) | GI50 (NCI-H226): > 100 µM (inactive) | GI50 (NCI-H522): > 100 µM (inactive) | GI50 (MDA-MB-435): > 100 µM (inactive) | GI50 (EKVX): > 100 µM (inactive) | GI50 (SNB-75): > 100 µM (inactive)

O=C(N/C(=C/c1ccc(Cl)cc1)c1nc2ccccc2c(=O)n1Nc1ccc([N+](=O)[O-])cc1[N+](=O)[O-])c1ccccc1
GI50 (SF-539): > 100 µM (inactive) | GI50 (MOLT-4): > 100 µM (inactive) | GI50 (HOP-62): > 100 µM (inactive) | GI50 (MDA-N): > 100 µM (inactive) | GI50 (MCF7): > 100 µM (inactive) | GI50 (CAKI-1): > 100 µM (inactive) | GI50 (HT-29): > 100 µM (inactive) | GI50 (T47D): > 100 µM (inactive) | GI50 (NCI-H460): > 100 µM (inactive) | GI50 (M14): > 100 µM (inactive) | GI50 (SW-620): > 100 µM (inactive) | GI50 (Hs-578T): > 100 µM (inactive) | GI50 (NCI-H226): > 100 µM (inactive) | GI50 (NCI-H522): > 100 µM (inactive) | GI50 (MDA-MB-435): > 100 µM (inactive) | GI50 (SNB-75): > 100 µM (inactive)

CC(C)(C)c1ccc(C(C)(C)C)c(N2C(=O)C3ON=C(c4ccc([N+](=O)[O-])cc4)C3C2=O)c1 (configuration not stated)
GI50 (SF-539): > 25 µM (inactive) | GI50 (MOLT-4): > 25 µM (inactive) | GI50 (HOP-62): 23.4 µM (inactive) | GI50 (MDA-N): 7.38 µM (inactive) | GI50 (ACHN): 15.2 µM (inactive) | GI50 (MCF7): 22.8 µM (inactive) | GI50 (CAKI-1): > 25 µM (inactive) | GI50 (HT-29): 21.4 µM (inactive) | GI50 (T47D): > 25 µM (inactive) | GI50 (NCI-H460): 6.75 µM (inactive) | GI50 (M14): > 25 µM (inactive) | GI50 (SW-620): 16.2 µM (inactive) | GI50 (Hs-578T): 6.98 µM (inactive) | GI50 (NCI-H226): 18.6 µM (inactive) | GI50 (NCI-H522): 18.4 µM (inactive) | GI50 (MDA-MB-435): 8.77 µM (inactive) | GI50 (EKVX): 20.3 µM (inactive) | GI50 (SNB-75): 5.07 µM (inactive)

C/C(=N\n1c(Cc2ccccc2)n[nH]c1=O)c1ccccc1
GI50 (SF-539): > 100 µM (inactive) | GI50 (MOLT-4): > 100 µM (inactive) | GI50 (MDA-N): > 100 µM (inactive) | GI50 (ACHN): > 100 µM (inactive) | GI50 (MCF7): > 100 µM (inactive) | GI50 (CAKI-1): > 100 µM (inactive) | GI50 (HT-29): > 100 µM (inactive) | GI50 (T47D): > 100 µM (inactive) | GI50 (M14): > 100 µM (inactive) | GI50 (SW-620): > 100 µM (inactive) | GI50 (SK-MEL-2): > 100 µM (inactive) | GI50 (Hs-578T): > 100 µM (inactive) | GI50 (NCI-H226): > 100 µM (inactive) | GI50 (NCI-H522): > 100 µM (inactive) | GI50 (MDA-MB-435): > 100 µM (inactive) | GI50 (EKVX): 94.4 µM (inactive)

COc1ccc2c3c1O[C@H]1[C@@H](O)CC[C@@]4(O)[C@@H](C2)N(C)CC[C@]314
GI50 (SF-539): > 100 µM (inactive) | GI50 (MOLT-4): > 100 µM (inactive) | GI50 (HOP-62): > 100 µM (inactive) | GI50 (MDA-N): > 100 µM (inactive) | GI50 (ACHN): > 100 µM (inactive) | GI50 (MCF7): > 100 µM (inactive) | GI50 (CAKI-1): > 100 µM (inactive) | GI50 (HT-29): > 100 µM (inactive) | GI50 (T47D): > 100 µM (inactive) | GI50 (M14): > 100 µM (inactive) | GI50 (SW-620): > 100 µM (inactive) | GI50 (SK-MEL-2): > 100 µM (inactive) | GI50 (Hs-578T): > 100 µM (inactive) | GI50 (NCI-H226): > 100 µM (inactive) | GI50 (NCI-H522): > 100 µM (inactive) | GI50 (MDA-MB-435): > 100 µM (inactive) | GI50 (EKVX): > 100 µM (inactive)

O=c1cc(-c2ccccc2F)[nH]c2ccc(N3CCCC3)cc12
GI50 (SF-539): < 0.001 µM (active) | GI50 (MOLT-4): 0.078 µM (active) | GI50 (HOP-62): 0.34 µM (active) | GI50 (MDA-N): 0.0135 µM (active) | GI50 (ACHN): < 0.001 µM (active) | GI50 (MCF7): 0.00745 µM (active) | GI50 (CAKI-1): < 0.001 µM (active) | GI50 (HT-29): 0.0284 µM (active) | GI50 (T47D): > 10 µM (inactive) | GI50 (NCI-H460): 0.0417 µM (active) | GI50 (M14): 0.0301 µM (active) | GI50 (SW-620): < 0.001 µM (active) | GI50 (SK-MEL-2): 0.0167 µM (active) | GI50 (Hs-578T): 0.0201 µM (active) | GI50 (NCI-H522): 0.0326 µM (active) | GI50 (MDA-MB-435): < 0.001 µM (active) | GI50 (EKVX): 0.00138 µM (active) | GI50 (SNB-75): 63.2 µM (inactive)

CC(=O)C(C(C)=O)[C@H]1OC(C)(C)O[C@H]1[C@H]1COC(C)(C)O1
GI50 (SF-539): 18.7 µM (inactive) | GI50 (MOLT-4): 50.8 µM (inactive) | GI50 (HOP-62): 23.4 µM (inactive) | GI50 (MDA-N): 55.3 µM (inactive) | GI50 (ACHN): 57.5 µM (inactive) | GI50 (MCF7): 35.6 µM (inactive) | GI50 (CAKI-1): 73.6 µM (inactive) | GI50 (HT-29): 33.6 µM (inactive) | GI50 (T47D): 89.1 µM (inactive) | GI50 (NCI-H460): 32.4 µM (inactive) | GI50 (M14): 44.3 µM (inactive) | GI50 (SW-620): 56.8 µM (inactive) | GI50 (SK-MEL-2): 22.6 µM (inactive) | GI50 (Hs-578T): 44.8 µM (inactive) | GI50 (NCI-H522): 33.8 µM (inactive) | GI50 (MDA-MB-435): 27.7 µM (inactive) | GI50 (EKVX): 50.6 µM (inactive) | GI50 (SNB-75): 42.2 µM (inactive)

C/C=C/C[C@@H](C)C(=O)C1C(=O)N[C@@H](C(C)C)C(=O)N(C)CC(=O)N(C)[C@@H](CC(C)C)C(=O)N[C@@H](C(C)C)C(=O)N(C)[C@@H](CC(C)C)C(=O)N[C@@H](C)C(=O)N[C@@H](C)C(=O)N(C)[C@@H](CC(C)C)C(=O)N(C)[C@@H](CC(C)C)C(=O)N(C)[C@@H](C(C)C)C(=O)N1C (some centres not stated)
GI50 (SF-539): 4.23 µM (inactive) | GI50 (MOLT-4): 2.35 µM (inactive) | GI50 (HOP-62): 6.47 µM (inactive) | GI50 (MDA-N): 2.39 µM (inactive) | GI50 (ACHN): 4.4 µM (inactive) | GI50 (MCF7): 3.95 µM (inactive) | GI50 (CAKI-1): 12.8 µM (inactive) | GI50 (HT-29): 3.8 µM (inactive) | GI50 (T47D): 3.03 µM (inactive) | GI50 (NCI-H460): 6.01 µM (inactive) | GI50 (M14): 6.28 µM (inactive) | GI50 (SW-620): 5.24 µM (inactive) | GI50 (Hs-578T): 6.21 µM (inactive) | GI50 (NCI-H226): 6.11 µM (inactive) | GI50 (NCI-H522): 4.19 µM (inactive) | GI50 (MDA-MB-435): 3.35 µM (inactive) | GI50 (EKVX): 8.51 µM (inactive) | GI50 (SNB-75): 4.98 µM (inactive)
